One experiment has as its target G-quadruplexes. Particulars: literature statement; cited from earlier work.
The target of experiment [1] is T95_2T (single loop propeller-type parallel G-quadruplex). The experiment in a line: Quantitative gel mobility shift assay of Rhau55 binding to T95_2T. To be noted: gel electrophoresis, DNA 100 nM, read-out: dissociation constant. Here is the method: (§1) (A) T95_2 T and Htelo1 at a concentration of 100 nM were incubated for 15 minutes at room temperature with an increasing concentration of Rhau55. (B) Quantification of gel electrophoresis assays bands of T95_2 T (black dot) and Htelo1 in dilute (open square) and crowding condition (black cross).
(§2) Subsequently, a quantitative analysis of the interaction between Rhau55 and three G-quadruplexes was performed using gel electrophoresis (FIG. 4). The analysis indicated a dissociation constant of 1029 nM and 989 nM for the parallel-type form of Htelo1 (under crowded condition) and the single, loop propeller-type T95_2 T, respectively, consistent with previous published data for the full-length protein (Tran H et al. (2004) Mol Cell, 13, 101). In contrast an apparent binding of >10 μM was found with the hybrid “3+1” form 1, and an estimated Kd over 10 μM was found for Htelo2, Htelo3 and Hetol4 non-parallel forming sequences, highlighting a net preference for the human telomeric sequences forming a parallel-type G-quadruplex. From the data little effect on three (Htelo1, parallel form) and single (T95_2T) loop size was observed on Rhau55 binding affinity.

For experiment [2], the target named is parallel-type form of Htelo1 (under crowded condition). Nature of the experiment: Quantitative gel mobility shift assay, Htelo1 in crowding condition (40% PEG). Format: binding, human. To be noted: parallel-type form of Htelo1 under crowded condition (40% PEG); gel electrophoresis; read-out: dissociation constant. The protocol: as §1
(§3) To confirm that the observed selective effect was based on the structure rather than sequence, the binding of Rhau55 was tested using the human telomeric sequences in K^+-containing solution, with and without crowded condition (40% v/v PEG200). In diluted solutions the human telomeric sequences Htelo1, Htelo2, Htelo3 and Helo4 form a distinct and non-parallel G-quadruplex (Luu K N et al. (2006) J Am ChemSoc, 128(30), 9963-9970; Phan A T et al. (2006) Nucleic Acids Res, 34(19), 5715-5719; Lim K W et al. (2009) J Am ChemSoc, 131(12), 4301-430; Lim K W et al. (2009) Nucleic Acids Res, 37(18), 6239-6248), however in crowded conditions those sequences form a propeller-type parallel stranded G-quadruplex.
Subsequently, a quantitative analysis of the interaction between Rhau55 and three G-quadruplexes was performed using gel electrophoresis (FIG. 4). […]

In experiment [3] the target is Htelo1 hybrid "3+1" form 1 G-quadruplex. The experiment in a line: Quantitative gel mobility shift assay, Htelo1 in dilute condition. More on the design: species or system human. To be noted: Htelo1 hybrid "3+1" form 1, dilute condition; read-out: apparent binding. Here is the method: as §1, §2
In experiment [4] the target is Htelo2 non-parallel G-quadruplex. The experiment in a line: Gel electrophoresis binding, Htelo2. More on the design: species or system human. To be noted: Htelo2 non-parallel forming sequence; read-out: estimated Kd. Here is the method: (§4) DNA concentrations were fixed at 100 nM and Rhau55 was 1 μM, in 70 mM KCL and 20 mM phosphate buffer (pH=6.8).
as §3
(§5) Subsequently, a quantitative analysis of the interaction between Rhau55 and three G-quadruplexes was performed using gel electrophoresis (FIG. 4). The analysis indicated a dissociation constant of 1029 nM and 989 nM for the parallel-type form of Htelo1 (under crowded condition) and the single, loop propeller-type T95_2 T, respectively, consistent with previous published data for the full-length protein (Tran H et al. (2004) Mol Cell, 13, 101). […]

In experiment [5] the target is Htelo3 non-parallel G-quadruplex. The experiment in a line: Gel electrophoresis binding, Htelo3. More on the design: species or system human. Particulars: Htelo3 non-parallel forming sequence; read-out: estimated Kd. The protocol:
as §4, §3, §5

In experiment [6] the target is Htelo4 non-parallel G-quadruplex. The experiment in a line: Gel electrophoresis binding, Htelo4. More on the design: species or system human. To be noted: Hetol4 non-parallel forming sequence; read-out: estimated Kd. The protocol: as §4, §3, §5
The test system of experiment [7] is parallel G-quadruplexes DNA and RNA (93del, CEB25, Pu24T, CEB1, TERC18, 12 nt TER, 10 nt TER). Nature of the experiment: Native gel electrophoresis of Rhau55 with parallel G-quadruplexes. Format: binding. Particulars: various parallel G-quadruplexes DNA and RNA; DNA 100 μM, 70 mM KCl, 20 mM phosphate pH 6.8. Here is the method: The ratio between Rhau55 and Nucleic acids is indicated on top of each lane. DNA concentrations were fixed at 100 μM, in 70 mM KCL and 20 mM phosphate buffer (pH=6.8).
Rhau55 was expressed in Escherichia coli. The binding of Rhau55 to different G-quadruplexes nucleic acids topology was first tested using gel electrophoresis.
(§6) Rhau55 binds to various parallel G-quadruplexes DNA and RNA (FIGS. 1 and 3-5) but not to various forms of non-parallel G-quadruplexes (FIGS. 1 and 6).

In experiment [8] the test system is human telomeric sequences Htelo1-Htelo4 G-quadruplexes. The experiment in a line: Gel shift assay of human telomeric sequences with and without crowded condition (40% v/v PEG200). Format: binding. To be noted: human telomeric sequences in K+ solution, dilute (non-parallel) vs crowded 40% v/v PEG200 (parallel). Here is the method:
as §4, §3

The subject of experiment [9] is mixture of T95_2T (propeller parallel form) and HT1 (non-parallel). The experiment in a line: NMR imino proton spectra of a mixture of HT1 and T95_2T with Rhau55. Format: binding. Particulars: Rhau55 added to mixture of T95_2T (parallel) and HT1 (non-parallel).
Description: as §6

For the compound `C[n+]1cc(NC(=O)c2ccc3ccc4ccc(C(=O)Nc5cc6ccccc6[n+](C)c5)nc4c3n2)cc2ccccc21` [Phen-DC3], the “dissociation constant Kd” value on G-quadruplexes was “nanomolar range”.

For “Rhau55: G-quadruplex binding domain of human helicase Rhau (DHX36), N-terminal residues 53 to 105, expressed in Escherichia coli (HPGHLKGREIGMWYAKKQGQKNKEAERQERAVVHMDERREEQIVQLLNSVQAK; UniProt Q9H2U1 53-105, looked up, fragment)”, the Kd in experiment [1] was 0.989 µM; in [2], 1.03 µM; in experiment [3], over 10 µM; in experiment [4], over 10 µM; in [5] it was over 10 µM; in experiment [6], over 10 µM. Also, the “binding in gel electrophoresis” value in experiment [7] is reported as “binds”. Besides, in experiment [8], the “binding in gel shift assay” value is given as “binds significantly only to a parallel-type G-quadruplex”. The “effect on NMR imino proton peaks” value in experiment [9] is given as “only affect the peaks of the former form”.

The values above are taken from US9815868B2, “Peptides binding to parallel-stranded G-quadruplexes” (NANYANG TECHNOLOGICAL UNIVERSITY, priority 2013, dated 2017).
